According to patent US20030199694A1, “Thermally stable trimetrexates and processes for producing the same” (MedImmune Oncology, Inc., priority 1998, published 2003):

Legend:
[1] = tested on: murine tumors such as B16 melanoma, colon 26 and 38, L1210 and p388 leukemia and CD8F mammary tumors; conditions: cited from earlier work
[2] = cited from earlier work
[3] = tested on: murine cell lines such as L1210, L5178Y, S-180, W-256; conditions: cited from earlier work
[4] = tested on: human tumor cells lines derived from breast, colon, lung, ovary, renal and melanoma cells; conditions: human tumor cell lines from breast; cited from earlier work
[5] = Thermal stability of TMH relative to anhydrous trimetrexate: storage at 25° C. or 50° C., HPLC assay, impurities and moisture; assay type: physicochemical
Description: Samples of trimetrexate monohydrate and anhydrous trimetrexate were analyzed to compare the thermal stability of anhydrous trimetrexate with the trimetrexate monohydrate of the present invention. Anhydrous trimetrexate was prepared by dehydrating trimetrexate monohydrate. A sample of trimetrexate monohydrate (about 30 g) was placed in a Petri dish and dried in a vacuum dessicator over phosphorus pentoxide. The sample was dried at a pressure of about 100 microns for 6 days. The following procedure was used to assay the purity of trimetrexate monohydrate and anhydrous trimetrexate samples. Samples of the compounds were analyzed by HPLC. The mobile phase is prepared by first dissolving 5 g of sodium dodecyl sulfate (Aldrich 86,201-0 or equivalent) in 1100 mL water and adjusting the pH to 3.0 with glacial acetic acid (about 5 mL). 825 mL of HPLC grade acetonitrile is then added, and the solution mixed thoroughly, while avoiding excessive foaming. The unfiltered solution is then degassed by sonicating for 5 minutes. The solution is degassed immediately before use, and at the beginning of each day. Duplicate standard solutions are prepared with a trimetrexate reference compound at a concentration of 0.2 mg/mL in the mobile phase solution (“STD-1” and “STD-2”). The standard solutions are stored under refrigeration when not in use, and fresh solutions are prepared daily. Sample solutions of anhydrous trimetrexate and trimetrexate monohydrate are also prepared at 0.2 mg/mL in the mobile phase solution. The system is checked before testing the sample solutions by analyzing the reproducibility of trimetrexate peak area measurements for six injections of the standard trimetrexate solution (STD-1), trimetrexate peak symmetry, and agreement between the duplicate standard preparations. The acceptance criteria are as follows: For assay data, the HPLC operating parameters are as follows: [table] For the determination of impurities, the operating parameters are as before, except that the run time is extended to 30 minutes to detect all possible impurities and/or degradation products, and an attenuation of 32 is used. A mobile phase blank is first run, followed by a sample solution. Purity (%w/w)=[(mg found×100%)+mg sample weighed)]×[…] Peak Area (%)=[peak area (imp)÷(Σpeak area (all impurities+TMTX))]×100. Samples of the anhydrous and monohydrate compounds were initially assayed for purity and moisture content. The samples were stored for 4 weeks at either 25° C. or 50° C. HPLC chromatograms were recorded for the samples stored at each temperature after 3 days, 1 week, 2 weeks and 4 weeks of storage, and the samples assayed at each time interval for purity, impurities and water content. […] The peak at about 13 minutes corresponds to the non-degraded compound; this peak is truncated in the Figure in order to expand the y-axis to view the impurities. […] The “amine” entry in Table 9 corresponds to the amine degradation product which is prominent in FIG. 7 as the large peak at about 20 minutes in the anhydrous sample. This degradation product was isolated and identified as 6-aminomethyl-5-methyl-2,4-quinazolinediamine. It is a pale yellow powder, with a molecular formula of C10H13N5 and a formula weight of 203.25 g/mol. The structure of the compound is shown below [drawing 11]

Hygroscopicity = assay type: physicochemical
[6] = at 37° C.; cited from earlier work
[7] = stored at 25° C., 1 week, monohydrate
[8] = stored at 25° C., 2 weeks, monohydrate
[9] = stored at 25° C., 4 weeks, monohydrate
[10] = stored at 25° C., 3 days, monohydrate
[11] = stored at 50° C., 1 week, monohydrate
[12] = stored at 50° C., 2 weeks, monohydrate
[13] = stored at 50° C., 4 weeks, monohydrate
[14] = stored at 50° C., 3 days, monohydrate

## COc1cc(NCc2ccc3nc(N)nc(N)c3c2C)cc(OC)c1OC [Anhydrous, 2,4-diamino-5-methyl-6-[(3,4,5-trimethoxyanilino)methyl] quinazoline]
[1]
  therapeutic utility in vivo: therapeutic utility
[2]
  water solubility: < 0.1 mg/mL
[3]
  antitumor activity in vitro: antitumor activity
[4]
  antitumor activity in vitro: antitumor activity
[5]; Initial
  % Moisture: 0.1%
[5]; Initial, before storage, HPLC purity
  Assay: 98.5 w/w
[5]; Initial, HPLC
  Total Impurities: 0.3 % area
[5]; Initial, degradation product 6-aminomethyl-5-methyl-2,4-quinazolinediamine, HPLC
  Amine: 0.2 % area
[5]; stored at 25° C., 1 week
  % Moisture: 0.4%
  Amine: 0.3 % area
  Assay: 96.6 w/w
  Total Impurities: 0.4 % area
[5]; stored at 25° C., 2 weeks
  % Moisture: 0.2%
  Amine: 0.4 % area
  Assay: 98.4 w/w
  Total Impurities: 0.5 % area
[5]; stored at 25° C., 4 weeks
  % Moisture: <0.1%
  Amine: 0.8 % area
  Assay: 97.6 w/w
  Total Impurities: 1.0 % area
[5]; stored at 25° C., 3 days
  % Moisture: 0.3%
  Amine: 0.2 % area
  Assay: 100.4 w/w
  Total Impurities: 0.4 % area
[5]; stored at 50° C., 1 week
  % Moisture: 0.7%
  Amine: 0.7 % area
  Assay: 95.0 w/w
  Total Impurities: 1.2 % area
[5]; stored at 50° C., 2 weeks
  % Moisture: 0.3%
  Amine: 1.4 % area
  Assay: 95.8 w/w
  Total Impurities: 2.1 % area
[5]; stored at 50° C., 4 weeks
  % Moisture: <0.1%
  Amine: 2.9 % area
  Assay: 92.7 w/w
  Total Impurities: 4.5 % area
[5]; stored at 50° C., 3 days
  % Moisture: 0.4%
  Amine: 0.4 % area
  Assay: 99.5 w/w
  Total Impurities: 0.7 % area

## COc1cc(NCc2ccc3nc(N)nc(N)c3c2C)cc(OC)c1OC [Monohydrate, trimetrexate monohydrate]
Hygroscopicity
  hygroscopicity: non-hygroscopic
[5]; Initial, before storage, HPLC purity, monohydrate
  Assay: 99.6 w/w
[5]; Initial, HPLC, monohydrate
  Total Impurities: 0.2 % area
[5]; Initial, degradation product 6-aminomethyl-5-methyl-2,4-quinazolinediamine, HPLC, monohydrate
  Amine: 0.1 % area
[5]; Initial, monohydrate
  % Moisture: 4.9%
[5]; after 4 weeks at 50° C., FIG. 7
  degradation products in HPLC chromatogram: no significant degradation products
[5]; [7]
  % Moisture: 4.5%
  Amine: 0.1 % area
  Assay: 96.3 w/w
  Total Impurities: 0.1 % area
[5]; [8]
  % Moisture: 4.9%
  Amine: 0.1 % area
  Assay: 99.4 w/w
  Total Impurities: 0.1 % area
[5]; [9]
  % Moisture: 4.3%
  Amine: 0.1 % area
  Assay: 99.6 w/w
  Total Impurities: 0.3 % area
[5]; [10]
  % Moisture: 4.7%
  Amine: 0.1 % area
  Assay: 101.4 w/w
  Total Impurities: 0.2 % area
[5]; [11]
  % Moisture: 4.6%
  Amine: 0.1 % area
  Assay: 98.6 w/w
  Total Impurities: 0.2 % area
[5]; [12]
  % Moisture: 4.8%
  Amine: 0.1 % area
  Assay: 98.7 w/w
  Total Impurities: 0.1 % area
[5]; [13]
  % Moisture: 4.4%
  Amine: 0.2 % area
  Assay: 99.6 w/w
  Total Impurities: 0.3 % area
[5]; [14]
  % Moisture: 4.7%
  Amine: 0.1 % area
  Assay: 99.4 w/w
  Total Impurities: 0.3 % area

## COc1cc(NCc2ccc3nc(N)nc(N)c3c2C)cc(OC)c1OC.O=C(O)[C@H]1O[C@H](O)[C@H](O)[C@@H](O)[C@@H]1O [trimetrexate glucuronate]
[6]
  half-life in solution: 51.6 ± 0.8 days
[2]
  water solubility: > 50 mg/mL
